In article PMC10155618 (Beilstein Journal of Organic Chemistry, 2023):

Legend:
[1] = test system: poly rA–poly rU (RNA, polymer) A/U; test: UV thermal melting, 260 nm; details: Na+ (sodium cacodylate, Ic = 0.05 mol dm^-3); Na cacodylate pH 7.0; negligible stabilisation; error ±0.5 °C; per base
[2] = test system: poly dAdT–poly dAdT (DNA, polymer) AT; test: fluorimetric titration, Scatchard/Global Fit; details: Na+ (sodium cacodylate, Ic = 0.05 mol dm^-3); Na cacodylate pH 7.0; compound 1–2 × 10^-6 M; n fixed 0.2; polynucleotide as phosphates; per base
[3] = test system: poly rA–poly rU (RNA, polymer) A/U; test: fluorimetric titration, Scatchard/Global Fit; details: Na+ (sodium cacodylate, Ic = 0.05 mol dm^-3); Na cacodylate pH 7.0; compound 1–2 × 10^-6 M; n fixed 0.2; polynucleotide as phosphates; per base
[4] = target: T1, human DPP III (dipeptidyl peptidase III, DPPIII), inactive mutant E451A (Homo sapiens, UniProt Q9NY33, E451A); test: isothermal titration calorimetry, one set of sites, N fixed to […]; assay type: binding; details: read-out: log Ka (converted)
T1 construct: gene DPP3; recombinant, heterologous expression in Escherichia coli, purified according to Spoljaric et al; mono-zinc metalloexopeptidase
T1 sequence (Q9NY33 2-737 E451A): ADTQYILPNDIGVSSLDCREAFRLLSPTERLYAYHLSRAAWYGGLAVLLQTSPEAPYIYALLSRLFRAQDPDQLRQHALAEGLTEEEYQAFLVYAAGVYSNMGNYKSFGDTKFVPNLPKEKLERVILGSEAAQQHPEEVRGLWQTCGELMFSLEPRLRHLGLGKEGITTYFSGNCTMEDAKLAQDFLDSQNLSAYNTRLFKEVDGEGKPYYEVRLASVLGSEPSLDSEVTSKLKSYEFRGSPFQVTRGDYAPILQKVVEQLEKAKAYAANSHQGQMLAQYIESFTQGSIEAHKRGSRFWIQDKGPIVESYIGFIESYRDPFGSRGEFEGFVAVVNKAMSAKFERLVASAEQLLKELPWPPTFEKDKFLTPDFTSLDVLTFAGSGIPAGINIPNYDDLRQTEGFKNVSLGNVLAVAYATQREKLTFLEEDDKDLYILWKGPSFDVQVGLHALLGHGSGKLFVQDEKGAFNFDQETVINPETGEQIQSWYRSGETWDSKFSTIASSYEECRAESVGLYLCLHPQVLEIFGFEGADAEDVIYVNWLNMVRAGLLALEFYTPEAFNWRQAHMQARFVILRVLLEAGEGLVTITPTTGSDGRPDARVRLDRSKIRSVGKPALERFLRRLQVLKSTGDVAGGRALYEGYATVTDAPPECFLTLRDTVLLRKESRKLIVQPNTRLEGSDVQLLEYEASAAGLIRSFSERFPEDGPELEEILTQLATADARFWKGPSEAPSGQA

[5] = test system: poly dGdC–poly dGdC (DNA, polymer) GC; test: fluorimetric titration, Scatchard/Global Fit; details: Na+ (sodium cacodylate, Ic = 0.05 mol dm^-3); Na cacodylate pH 7.0; compound 1–2 × 10^-6 M; n fixed 0.2; polynucleotide as phosphates; per base

For `COC(=O)[C@H](Cc1ccc2c(c1)c(C)nc1ccccc12)NC(=O)c1ccc2ccc3cccc4ccc1c2c34`, the ΔTm [1] was < 0.5 °C.

`COC(=O)[C@H](Cc1ccc2c(c1)c(C)nc1ccccc12)NC(=O)CCCc1ccc2ccc3cccc4ccc1c2c34` [Phen-Py-1] was tested, and the “log Ka” value [2] was 5.97, the ΔTm [1] was < 0.5 °C and the “log Ka” value [3] was 7.07. The Kd [4] was 3.39 µM and the “log Ka” value [5] was 6.87.
